# Experimental data: publication PMC5069765, “OsdR of Streptomyces coelicolor and the Dormancy Regulator DevR of Mycobacterium tuberculosis Control Overlapping Regulons” (mSystems, 2016)
# How the values were obtained:
# OsdR (SCO0204) = target: T1, OsdR (SCO0204) (Streptomyces coelicolor, UniProt Q9RI42); experiment: in vitro phosphorylation by AcP, read out by EMSA (DNA binding versus nonphosphorylated OsdR); assay type: biochemical; settings: phosphor donor; covalent phosphorylation; indirect read-out
# T1 construct: His6-tagged, from plasmid pET0204 in E. coli BL21(DE3), Ni-NTA purified
# T1 sequence (Q9RI42 1-233): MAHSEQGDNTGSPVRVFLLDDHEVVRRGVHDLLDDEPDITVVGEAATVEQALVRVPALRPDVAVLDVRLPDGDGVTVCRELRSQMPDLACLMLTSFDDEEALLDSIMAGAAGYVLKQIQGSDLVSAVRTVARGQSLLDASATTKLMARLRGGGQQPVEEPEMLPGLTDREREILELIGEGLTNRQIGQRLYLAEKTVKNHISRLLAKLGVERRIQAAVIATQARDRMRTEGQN
# [1] = target: T2, OsdR~P (phosphorylated with acetyl phosphate) (Streptomyces coelicolor) (UniProt Q9RI42); experiment: EMSA; settings: AcP-phosphorylated; EMSA with 32P-labeled probes, 20 fmol DNA (50-mers), uM OsdR; AcP phosphorylation; buffer, pH, temperature not given (cited method)
# T2 sequence: T1 sequence (Q9RI42 1-233)
Compound,"in vitro phosphorylation by AcP, read out by EMSA (DNA binding versus nonphospho) (OsdR (SCO0204))",binding signal (fold lower affinity than other targets) [1]
CC(=O)OP(=O)(O)O [acetyl phosphate],OsdR~P was obtained after AcP phosphorylation in vitro,–
SCO2637 promoter,–,2
